The experiment relates to MV-4-11 cells. Description: Gene expression microarray analysis (Affymetrix PrimeView) and GSEA. The format is cell-based, human. More on the design: RFU PODN (11730768_x_at) / Fold change /veh PODN (11730768_x_at) / RFU LINC00158 (11744669_a_at) / Fold change /veh LINC00158 (11744669_a_at) / RFU DUSP10 (11751237_a_at) / Fold change /veh DUSP10 (11751237_a_at) / RFU ID3 (11757404_x_at) / Fold change /veh ID3 (11757404_x_at) / RFU PLEKHG5 (11737974_s_at) / Fold change /veh PLEKHG5 (11737974_s_at) / RFU LRRC4B (11730491_at) / Fold change /veh LRRC4B (11730491_at) / RFU GIMAP4 (11747438_a_at) / Fold change /veh GIMAP4 (11747438_a_at) / RFU KRT8 (11758183_x_at) / Fold change /veh KRT8 (11758183_x_at) / RFU CNN1 (11734310_a_at) / Fold change /veh CNN1 (11734310_a_at) / RFU VPS37D (11726825_at) / Fold change /veh VPS37D (11726825_at) / RFU C10orf10 (11716522_x_at) / Fold change /veh C10orf10 (11716522_x_at) / RFU KIR2DL2 /// KIR2DL4 /// KIR2DL5A /// KIR2DL5B /// KIR2DS1 /// KIR2DS2 /// KIR2DS3 /// KIR2DS4 /// KIR3DL3 /// KIR3DL3 /// KIR3DS1 (11738374_at) / Fold change /veh KIR2DL2 /// KIR2DL4 /// KIR2DL5A /// KIR2DL5B /// KIR2DS1 /// KIR2DS2 /// KIR2DS3 /// KIR2DS4 /// KIR3DL3 /// KIR3DL3 /// KIR3DS1 (11738374_at) / RFU C1QL1 (11718748_at) / Fold change /veh C1QL1 (11718748_at) / RFU TMPRSS4 (11747572_a_at) / Fold change /veh TMPRSS4 (11747572_a_at) / RFU HAMP (11756126_x_at) / Fold change /veh HAMP (11756126_x_at) / RFU RNFT2 (11725882_a_at) / Fold change /veh RNFT2 (11725882_a_at) / RFU NR4A2 (11747474_a_at) / Fold change /veh NR4A2 (11747474_a_at) / RFU ABCC12 (11746883_a_at) / Fold change /veh ABCC12 (11746883_a_at) / RFU TMEM136 (11760407_x_at) / Fold change /veh TMEM136 (11760407_x_at) / RFU CLDN22 /// WWC2 (11732394_at) / Fold change /veh CLDN22 /// WWC2 (11732394_at) / RFU HLA-DPB1 (11760878_x_at) / Fold change /veh HLA-DPB1 (11760878_x_at) / RFU SPINT1 (11716480_a_at) / Fold change /veh SPINT1 (11716480_a_at) / RFU GAP43 (11754022_s_at) / Fold change /veh GAP43 (11754022_s_at) / RFU A4GNT (11735810_at) / Fold change /veh A4GNT (11735810_at) / RFU PRB3 (11715151_x_at) / Fold change /veh PRB3 (11715151_x_at) / RFU TUBB4B (11761932_at) / Fold change /veh TUBB4B (11761932_at) / RFU CAPN14 (11732068_a_at) / Fold change /veh CAPN14 (11732068_a_at) / RFU TMCC2 (11721928_a_at) / Fold change /veh TMCC2 (11721928_a_at) / RFU IRGQ (11745062_a_at) / Fold change /veh IRGQ (11745062_a_at) / RFU FAM174B (11720279_a_at) / Fold change /veh FAM174B (11720279_a_at) / RFU TMPRSS4 (11748680_a_at) / Fold change /veh TMPRSS4 (11748680_a_at) / RFU FAM212B (11763350_a_at) / Fold change /veh FAM212B (11763350_a_at) / RFU PLEKHG5 (11743358_a_at) / Fold change /veh PLEKHG5 (11743358_a_at) / RFU ZSCAN30 (11745921_a_at) / Fold change /veh ZSCAN30 (11745921_a_at) / RFU CMKLR1 (11741424_a_at) / Fold change /veh CMKLR1 (11741424_a_at) / RFU LOC101060620 /// MAPK8IP1 (11723275_at) / Fold change /veh LOC101060620 /// MAPK8IP1 (11723275_at) / RFU SPTSSB (11747773_x_at) / Fold change /veh SPTSSB (11747773_x_at) / RFU PRSS12 (11739890_at) / Fold change /veh PRSS12 (11739890_at) / RFU BIN1 (11741810_x_at) / Fold change /veh BIN1 (11741810_x_at) / RFU WNT11 (11732464_a_at) / Fold change /veh WNT11 (11732464_a_at) / RFU C10orf10 (11716521_a_at) / Fold change /veh C10orf10 (11716521_a_at) / RFU C5orf56 (11738089_at) / Fold change /veh C5orf56 (11738089_at) / RFU CYB561 (11721691_x_at) / Fold change /veh CYB561 (11721691_x_at) / RFU ANKRD19P (11752326_a_at) / Fold change /veh ANKRD19P (11752326_a_at) / RFU OR2T12 /// OR2T33 /// OR2T8 (11738714_s_at) / Fold change /veh OR2T12 /// OR2T33 /// OR2T8 (11738714_s_at) / RFU VCAN (11748164_a_at) / Fold change /veh VCAN (11748164_a_at) / RFU JSRP1 (11732532_at) / Fold change /veh JSRP1 (11732532_at) / RFU KRTAP10-11 (11738290_x_at) / Fold change /veh KRTAP10-11 (11738290_x_at) / RFU MYO3A (11730013_a_at) / Fold change /veh MYO3A (11730013_a_at) / RFU EBF3 (11725865_a_at) / Fold change /veh EBF3 (11725865_a_at) / RFU CAMK2N1 (11719241_x_at) / Fold change /veh CAMK2N1 (11719241_x_at) / RFU C5orf56 (11738088_a_at) / Fold change /veh C5orf56 (11738088_a_at) / RFU OLFML3 (11715873_a_at) / Fold change /veh OLFML3 (11715873_a_at) / RFU LOC100653217 /// NTM (11731650_a_at) / Fold change /veh LOC100653217 /// NTM (11731650_a_at) / RFU MAPK11 (11762145_a_at) / Fold change /veh MAPK11 (11762145_a_at) / RFU FIZ1 (11724087_x_at) / Fold change /veh FIZ1 (11724087_x_at) / RFU OASL (11726364_x_at) / Fold change /veh OASL (11726364_x_at) / RFU SOX15 (11748057_x_at) / Fold change /veh SOX15 (11748057_x_at) / RFU CD79A (11719716_a_at) / Fold change /veh CD79A (11719716_a_at) / RFU HIST1H1D (11736915_at) / Fold change /veh HIST1H1D (11736915_at) / RFU CASKIN2 (11723855_a_at) / Fold change /veh CASKIN2 (11723855_a_at) / RFU LOC730098 (11760151_x_at) / Fold change /veh LOC730098 (11760151_x_at) / RFU OR4N2 (11742367_at) / Fold change /veh OR4N2 (11742367_at) / RFU PRRT2 (11749266_a_at) / Fold change /veh PRRT2 (11749266_a_at) / RFU SNX32 (11753110_a_at) / Fold change /veh SNX32 (11753110_a_at) / RFU CDHR5 (11726645_a_at) / Fold change /veh CDHR5 (11726645_a_at) / RFU RCAN1 (11760418_a_at) / Fold change /veh RCAN1 (11760418_a_at) / RFU FAM167A (11723789_a_at) / Fold change /veh FAM167A (11723789_a_at) / RFU FAM26E (11764081_at) / Fold change /veh FAM26E (11764081_at) / RFU ISYNA1 (11749810_s_at) / Fold change /veh ISYNA1 (11749810_s_at) / RFU ACY1 (11761880_at) / Fold change /veh ACY1 (11761880_at) / RFU 11764098_at / Fold change /veh 11764098_at / RFU SAMD14 (11745864_x_at) / Fold change /veh SAMD14 (11745864_x_at) / RFU NPB (11741838_a_at) / Fold change /veh NPB (11741838_a_at) / RFU TMPRSS6 (11731388_a_at) / Fold change /veh TMPRSS6 (11731388_a_at) / RFU KRTAP10-2 (11738614_at) / Fold change /veh KRTAP10-2 (11738614_at) / RFU ARHGAP8 /// PRR5-ARHGAP8 (11727945_x_at) / Fold change /veh ARHGAP8 /// PRR5-ARHGAP8 (11727945_x_at) / RFU KRTAP5-7 /// NADSYN1 (11734609_at) / Fold change /veh KRTAP5-7 /// NADSYN1 (11734609_at) / RFU RASL12 (11751679_a_at) / Fold change /veh RASL12 (11751679_a_at) / RFU CDKN2B (11736163_a_at) / Fold change /veh CDKN2B (11736163_a_at) / RFU PRF1 (11729649_at) / Fold change /veh PRF1 (11729649_at) / RFU, ZNF638 /// ZNF638-IT1 / Fold change vs veh, ZNF638 /// ZNF638-IT1 / RFU, PANK3 / Fold change vs veh, PANK3 / RFU, SH3YL1 / Fold change vs veh, SH3YL1 / RFU, ZEB2 / Fold change vs veh, ZEB2 / RFU, NRIP1 / Fold change vs veh, NRIP1 / RFU, PTTG1IP / Fold change vs veh, PTTG1IP / RFU, CAPN2 / Fold change vs veh, CAPN2 / RFU, MED14 / Fold change vs veh, MED14 / RFU, SNORA58 / Fold change vs veh, SNORA58 / RFU, C1orf63 / Fold change vs veh, C1orf63 / RFU, LRRFIP1 / Fold change vs veh, LRRFIP1 / RFU, NDUFAF7 / Fold change vs veh, NDUFAF7 / RFU, SLC12A2 / Fold change vs veh, SLC12A2 / RFU, IBTK / Fold change vs veh, IBTK / RFU, ESF1 / Fold change vs veh, ESF1 / Fold change vs veh, TMEM50B / RFU, TAOK1 / Fold change vs veh, TAOK1 / RFU, ACBD3 / Fold change vs veh, ACBD3 / RFU, TMA16 / Fold change vs veh, TMA16 / RFU, RWDD3 / Fold change vs veh, RWDD3 / RFU, BCAT1 / Fold change vs veh, BCAT1 / RFU, EDEM3 / Fold change vs veh, EDEM3 / RFU, TMEM33 / Fold change vs veh, TMEM33 / RFU, WDR75 / Fold change vs veh, WDR75 / RFU, AHCTF1 / Fold change vs veh, AHCTF1 / RFU, TFRC / Fold change vs veh, TFRC / RFU, ZDHHC17 / Fold change vs veh, ZDHHC17 / RFU, NOM1 / Fold change vs veh, NOM1 / RFU, ARL8B / Fold change vs veh, ARL8B / RFU, ZBTB11 / Fold change vs veh, ZBTB11 / RFU, TAMM41 / Fold change vs veh, TAMM41 / RFU, KIAA1704 /// LOC100996395 / Fold change vs veh, KIAA1704 /// LOC100996395 / RFU, ING1 / Fold change vs veh, ING1 / RFU, TRMT61B / Fold change vs veh, TRMT61B / RFU, FUBP3 / Fold change vs veh, FUBP3 / RFU, TP53 / Fold change vs veh, TP53 / RFU, TNKS2 / Fold change vs veh, TNKS2 / RFU, ZFP14 / Fold change vs veh, ZFP14 / RFU, ACTR2 / Fold change vs veh, ACTR2 / RFU, PPP3R1 / Fold change vs veh, PPP3R1 / RFU, PIK3R1 / Fold change vs veh, PIK3R1 / RFU, HNRNPA1 / Fold change vs veh, HNRNPA1 / RFU, RNF170 / Fold change vs veh, RNF170 / RFU, ZNF28 / Fold change vs veh, ZNF28 / RFU, RNGTT / Fold change vs veh, RNGTT / RFU, OGT / Fold change vs veh, OGT / RFU, BRD1 / Fold change vs veh, BRD1 / RFU, MARS / Fold change vs veh, MARS / RFU, ZNF655 / Fold change vs veh, ZNF655 / RFU, FAHD1 / Fold change vs veh, FAHD1 / RFU, BDP1 / Fold change vs veh, BDP1 / RFU, LRRCC1 / Fold change vs veh, LRRCC1 / RFU, ARID1A / Fold change vs veh, ARID1A / RFU, ZNF146 / Fold change vs veh, ZNF146 / RFU, ZNF330 / Fold change vs veh, ZNF330 / RFU, GPN3 / Fold change vs veh, GPN3 / RFU, C9orf123 / Fold change vs veh, C9orf123 / RFU, N4BP2L2 / Fold change vs veh, N4BP2L2 / RFU, ARFIP1 / Fold change vs veh, ARFIP1 / RFU, FAM179B / Fold change vs veh, FAM179B / RFU, BCL10 / Fold change vs veh, BCL10 / RFU, UHRF1BP1L / Fold change vs veh, UHRF1BP1L / RFU, BET1 / Fold change vs veh, BET1 / RFU, CNOT2 / Fold change vs veh, CNOT2 / RFU, ZNF268 / Fold change vs veh, ZNF268 / Fold change vs veh, ZNF507 / RFU, DGCR2 / Fold change vs veh, DGCR2 / RFU, WDSUB1 / Fold change vs veh, WDSUB1 / Fold change vs veh, HSP90B1 /// MIR3652 / RFU, ADSS / Fold change vs veh, ADSS / RFU, GK / Fold change vs veh, GK / RFU, ZNF148 / Fold change vs veh, ZNF148 / RFU, TAF9 / Fold change vs veh, TAF9 / RFU, SLC1A5 / Fold change vs veh, SLC1A5 / RFU, SLMO2 / Fold change vs veh, SLMO2 / RFU, ABCC4 / Fold change vs veh, ABCC4 / RFU, LOC101060439 /// RAP1B / Fold change vs veh, LOC101060439 /// RAP1B / RFU, RFX7 / Fold change vs veh, RFX7 / RFU, GTPBP10 / Fold change vs veh, GTPBP10 / RFU, CNEP1R1 / Fold change vs veh, CNEP1R1 / RFU, BIVM-ERCC5 /// ERCC5 / Fold change vs veh, BIVM-ERCC5 /// ERCC5 / RFU, ILF3 / Fold change vs veh, ILF3 / RFU 11762660_at / Fold change /veh 11762660_at / RFU VCAN (11757783_s_at) / Fold change /veh VCAN (11757783_s_at) / RFU DDX43 (11728927_at) / Fold change /veh DDX43 (11728927_at) / RFU KRT8 (11758188_x_at) / Fold change /veh KRT8 (11758188_x_at) / RFU NKD1 (11759106_at) / Fold change /veh NKD1 (11759106_at) / RFU SRD5A1 (11742802_a_at) / Fold change /veh SRD5A1 (11742802_a_at) / RFU TPSAB1 /// TPSB2 (11721975_s_at) / Fold change /veh TPSAB1 /// TPSB2 (11721975_s_at) / RFU GSTM3 (11746129_a_at) / Fold change /veh GSTM3 (11746129_a_at) / RFU IL23R (11737362_x_at) / Fold change /veh IL23R (11737362_x_at) / RFU TMEM51 (11727254_a_at) / Fold change /veh TMEM51 (11727254_a_at) / RFU PIWIL2 (11732686_x_at) / Fold change /veh PIWIL2 (11732686_x_at) / RFU ORM1 (11744905_x_at) / Fold change /veh ORM1 (11744905_x_at) / RFU CCDC152 (11743942_at) / Fold change /veh CCDC152 (11743942_at) / RFU ECM1 (11717891_a_at) / Fold change /veh ECM1 (11717891_a_at) / RFU IL23R (11748794_a_at) / Fold change /veh IL23R (11748794_a_at) / RFU TNFAIP8L3 (11732012_x_at) / Fold change /veh TNFAIP8L3 (11732012_x_at) / RFU MBOAT4 (11741988_at) / Fold change /veh MBOAT4 (11741988_at) / RFU 11764193_at / Fold change /veh 11764193_at / RFU TMEM53 (11763286_at) / Fold change /veh TMEM53 (11763286_at) / RFU MAGEB2 (11727129_at) / Fold change /veh MAGEB2 (11727129_at) / RFU TMEM200A (11744735_a_at) / Fold change /veh TMEM200A (11744735_a_at) / RFU CCDC152 (11751479_a_at) / Fold change /veh CCDC152 (11751479_a_at) / RFU FAM211A (11726209_a_at) / Fold change /veh FAM211A (11726209_a_at) / RFU RGS16 (11746705_a_at) / Fold change /veh RGS16 (11746705_a_at) / RFU VCAN (11755009_s_at) / Fold change /veh VCAN (11755009_s_at) / RFU RHOB (11743442_s_at) / Fold change /veh RHOB (11743442_s_at) / RFU RGS16 (11720943_a_at) / Fold change /veh RGS16 (11720943_a_at) / RFU RGS16 (11720944_at) / Fold change /veh RGS16 (11720944_at) / RFU, VPS4B / Fold change vs veh, VPS4B / RFU, CREB1 / Fold change vs veh, CREB1 / RFU, DNAJC13 / Fold change vs veh, DNAJC13 / RFU, GNAQ / Fold change vs veh, GNAQ / RFU, CDK5R1 / Fold change vs veh, CDK5R1 / RFU, ZRANB3 / Fold change vs veh, ZRANB3 / RFU, CUL4A / Fold change vs veh, CUL4A / RFU, CCNY / Fold change vs veh, CCNY / RFU, UFL1 / Fold change vs veh, UFL1 / RFU, COG3 / Fold change vs veh, COG3 / RFU, DIAPH2 / Fold change vs veh, DIAPH2 / RFU, SKA2 / Fold change vs veh, SKA2 / RFU, AFF3 / Fold change vs veh, AFF3 / RFU, LMF1 / Fold change vs veh, LMF1 / RFU, IPO11 / Fold change vs veh, IPO11 / RFU, DFFB / Fold change vs veh, DFFB / RFU, FOXP1 / Fold change vs veh, FOXP1 / RFU, CARD8 / Fold change vs veh, CARD8 / RFU, STRN3 / Fold change vs veh, STRN3 / RFU, ADK / Fold change vs veh, ADK / RFU, RASSF2 / Fold change vs veh, RASSF2 / RFU, WIPF1 / Fold change vs veh, WIPF1 / RFU, LARP1B / Fold change vs veh, LARP1B / RFU, RASA1 / Fold change vs veh, RASA1 / RFU, RB1 / Fold change vs veh, RB1 / RFU, PPFIA1 / Fold change vs veh, PPFIA1 / RFU, MAT2A / Fold change vs veh, MAT2A / RFU, CCT5 / Fold change vs veh, CCT5 / RFU, WDR92 / Fold change vs veh, WDR92 / RFU, CUX1 / Fold change vs veh, CUX1 / RFU, TTC7A / Fold change vs veh, TTC7A / RFU, TMEM135 / Fold change vs veh, TMEM135 / RFU, DEPTOR / Fold change vs veh, DEPTOR / RFU, CPM / Fold change vs veh, CPM / RFU, DNAJB6 / Fold change vs veh, DNAJB6 / RFU, CACNA2D3 / Fold change vs veh, CACNA2D3 / RFU, DTX4 / Fold change vs veh, DTX4 / RFU, TFCP2 / Fold change vs veh, TFCP2 / RFU, GMCL1 /// GMCL1P1 / Fold change vs veh, GMCL1 /// GMCL1P1 / RFU, AEBP2 / Fold change vs veh, AEBP2 / RFU, SNHG1 /// SNORD22 /// SNORD25 /// SNORD26 /// SNORD27 /// SNORD28 /// SNORD29 /// SNORD31 / Fold change vs veh, SNHG1 /// SNORD22 /// SNORD25 /// SNORD26 /// SNORD27 /// SNORD28 /// SNORD29 /// SNORD31 / Fold change (Aza/veh), C12orf56 (ProbeSet 11735607_a_at) / Fold change (ACY-1035/veh), C12orf56 (ProbeSet 11735607_a_at) / Fold change (Aza/veh), FGFR1OP (ProbeSet 11751329_s_at) / Fold change (ACY-1035/veh), FGFR1OP (ProbeSet 11751329_s_at) / Fold change (Aza/veh), VPS36 (ProbeSet 11739960_a_at) / Fold change (ACY-1035/veh), VPS36 (ProbeSet 11739960_a_at) / RFU SYPL1 (11715823_x_at) / Fold change /veh SYPL1 (11715823_x_at) / RFU IGFBP7 (11715501_s_at) / Fold change /veh IGFBP7 (11715501_s_at) / RFU REEP3 (11722064_at) / Fold change /veh REEP3 (11722064_at) / RFU IGLL1 (11728026_x_at) / Fold change /veh IGLL1 (11728026_x_at): dose or concentration left out as unconfirmed. To be noted: MV-4-11 cells, 48 hours.

As for `Nc1ncn([C@@H]2O[C@H](CO)[C@@H](O)[C@H]2O)c(=O)n1` [azacitidine], the “Fold change /veh TPSAB1 /// TPSB2 (11721975_s_at)” value came out at 1.21.

The values above are taken from paper PMC5218480 (PLoS ONE, 2017).
